Laboratory results published in PubChem BioAssay AID248 (DTP/NCI, 2004).
Where “and” joins values, the source holds several entries; their conditions need not be identical. Equal values may be shown once. Toxic doses and inconclusive results are not listed.

Tested on: L1210 leukemia ip in BDF1 mice, survival T/C
Experiment: NCI In Vivo Anticancer Drug Screen. Data for tumor model L1210 Leukemia (intraperitoneal) in B6D2F1 (BDF1) mice
Conditions: endpoint: mean survival time, higher = longer survival
Outline: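 Value reflects the ratio of survival in compound-treated mice to survival in vehicle-treated controls, with both groups carrying the same transplanted tumor.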

[1] = dose: 100.0 mg/kg/injection, schedule: Q04DX002 (ip), vehicle: saline
[2] = dose: 200.0 mg/kg/injection, schedule: Q04DX002 (ip), vehicle: saline
[3] = dose: 400.0 mg/kg/injection, schedule: Q04DX002 (ip), vehicle: saline
[4] = dose: 50.0 mg/kg/injection, schedule: Q01DX009 (ip), vehicle: Klucel (hydroxypropylcellulose) (HPC)
[5] = dose: 100.0 mg/kg/injection, schedule: Q01DX009 (ip), vehicle: Klucel (hydroxypropylcellulose) (HPC)
[6] = dose: 100.0 mg/kg/injection, schedule: Q04DX003 (ip), vehicle: Klucel (hydroxypropylcellulose) (HPC)
[7] = dose: 200.0 mg/kg/injection, schedule: Q04DX003 (ip), vehicle: Klucel (hydroxypropylcellulose) (HPC)
[8] = dose: 100.0 mg/kg/injection, schedule: Q04DX003 (ip), vehicle: saline with Tween-80
[9] = dose: 50.0 mg/kg/injection, schedule: Q04DX002 (ip), vehicle: Klucel (hydroxypropylcellulose) (HPC)

Compound: CN(C)CCOC(=O)c1cccc(CCl)c1
- T/C (dose: 45.0 mg/kg/injection, schedule: Q04DX002 (ip), vehicle: saline): 106 % of control
- T/C (dose: 50.0 mg/kg/injection, schedule: Q04DX002 (ip), vehicle: saline): 98 % of control
- T/C (dose: 65.0 mg/kg/injection, schedule: Q04DX002 (ip), vehicle: saline): 97 % of control
- T/C [1]: 97 % of control and 102 % of control
- T/C (dose: 150.0 mg/kg/injection, schedule: Q04DX002 (ip), vehicle: saline): 91 % of control
- T/C [2]: 94 % of control and 88 % of control
- T/C [3]: 106 % of control

Compound: O=C(O)Cn1nnc2ccccc21
- T/C (dose: 50.0 mg/kg/injection, schedule: Q01DX009 (ip), vehicle: saline): 94 % of control
- T/C (dose: 100.0 mg/kg/injection, schedule: Q01DX009 (ip), vehicle: saline): 249 % of control
- T/C (dose: 200.0 mg/kg/injection, schedule: Q01DX009 (ip), vehicle: saline): 94 % of control

Compound: C[N+](C)(C)CCCC1C2CCC(C2)C1C#N (centres undefined)
- T/C (dose: 3.13 mg/kg/injection, schedule: Q01DX009 (ip), vehicle: saline): 101 % of control
- T/C (dose: 6.25 mg/kg/injection, schedule: Q01DX009 (ip), vehicle: saline): 97 % of control
- T/C (dose: 12.5 mg/kg/injection, schedule: Q01DX009 (ip), vehicle: saline): 98 % of control and 101 % of control
- T/C (dose: 12.5 mg/kg/injection, schedule: Q04DX003 (ip), vehicle: saline): 102 % of control
- T/C (dose: 25.0 mg/kg/injection, schedule: Q04DX003 (ip), vehicle: saline): 98 % of control
- T/C (dose: 50.0 mg/kg/injection, schedule: Q04DX003 (ip), vehicle: saline): 96 % of control

Compound: CC(=O)Nc1ccc(NC(=S)Nc2ccc(NC(C)=O)cc2)cc1
- T/C [4]: 101 % of control
- T/C [5]: 104 % of control
- T/C [6]: 97 % of control
- T/C [7]: 93 % of control

Compound: COc1ccc(/C=c2\[nH]c(=O)/c(=C/c3ccc(OC)c(OC)c3)[nH]c2=O)cc1OC
- T/C (dose: 25.0 mg/kg/injection, schedule: Q04DX003 (ip), vehicle: saline with Tween-80): 92 % of control
- T/C (dose: 50.0 mg/kg/injection, schedule: Q04DX003 (ip), vehicle: saline with Tween-80): 89 % of control
- T/C [8]: 86 % of control

Compound: CCCN(CC#N)CCC
- T/C (dose: 3.0 mg/kg/injection, schedule: Q01DX009 (ip), vehicle: Klucel (hydroxypropylcellulose) (HPC)): 97 % of control
- T/C (dose: 6.0 mg/kg/injection, schedule: Q01DX009 (ip), vehicle: Klucel (hydroxypropylcellulose) (HPC)): 97 % of control
- T/C (dose: 6.0 mg/kg/injection, schedule: Q04DX003 (ip), vehicle: Klucel (hydroxypropylcellulose) (HPC)): 98 % of control
- T/C (dose: 12.0 mg/kg/injection, schedule: Q01DX009 (ip), vehicle: Klucel (hydroxypropylcellulose) (HPC)): 97 % of control
- T/C (dose: 12.0 mg/kg/injection, schedule: Q04DX003 (ip), vehicle: Klucel (hydroxypropylcellulose) (HPC)): 107 % of control
- T/C (dose: 25.0 mg/kg/injection, schedule: Q04DX003 (ip), vehicle: Klucel (hydroxypropylcellulose) (HPC)): 96 % of control

Compound: CCCCCCSc1nccnc1C
- T/C (dose: 25.0 mg/kg/injection, schedule: Q01DX009 (ip), vehicle: Klucel (hydroxypropylcellulose) (HPC)): 100 % of control
- T/C (dose: 50.0 mg/kg/injection, schedule: Q01DX001 (ip), vehicle: Klucel (hydroxypropylcellulose) (HPC)): 92 % of control
- T/C [4]: 92 % of control and 96 % of control
- T/C [9]: 92 % of control
- T/C (dose: 50.0 mg/kg/injection, schedule: Q04DX003 (ip), vehicle: Klucel (hydroxypropylcellulose) (HPC)): 93 % of control
- T/C (dose: 100.0 mg/kg/injection, schedule: Q01DX001 (ip), vehicle: Klucel (hydroxypropylcellulose) (HPC)): 95 % of control
- T/C [5]: 123 % of control and 91 % of control
- T/C (dose: 100.0 mg/kg/injection, schedule: Q04DX002 (ip), vehicle: Klucel (hydroxypropylcellulose) (HPC)): 102 % of control
- T/C [6]: 95 % of control
- T/C (dose: 200.0 mg/kg/injection, schedule: Q01DX001 (ip), vehicle: Klucel (hydroxypropylcellulose) (HPC)): 98 % of control
- T/C (dose: 200.0 mg/kg/injection, schedule: Q01DX009 (ip), vehicle: Klucel (hydroxypropylcellulose) (HPC)): 100 % of control
- T/C (dose: 200.0 mg/kg/injection, schedule: Q04DX002 (ip), vehicle: Klucel (hydroxypropylcellulose) (HPC)): 87 % of control
- T/C [7]: 92 % of control
- T/C (dose: 400.0 mg/kg/injection, schedule: Q01DX001 (ip), vehicle: Klucel (hydroxypropylcellulose) (HPC)): 98 % of control
- T/C (dose: 400.0 mg/kg/injection, schedule: Q04DX002 (ip), vehicle: Klucel (hydroxypropylcellulose) (HPC)): 94 % of control
- T/C (dose: 400.0 mg/kg/injection, schedule: Q04DX003 (ip), vehicle: Klucel (hydroxypropylcellulose) (HPC)): 87 % of control

Compound: c1ccc(-n2cc(-c3nc(N4CC4)nc(N4CC4)n3)c3ccccc32)cc1
- T/C [4]: 121 % of control
- T/C [5]: 103 % of control
- T/C [6]: 112 % of control
- T/C [7]: 118 % of control

Compound: Clc1ccc(C[As+](c2ccccc2)(c2ccccc2)c2ccccc2)cc1
- T/C (dose: 20.0 mg/kg/injection, schedule: Q01DX001 (ip), vehicle: saline): 97 % of control

Compound: COC(=O)c1ccc(N(C)CC(=O)CNc2nc(N)nc(SCc3ccccc3)c2[N+](=O)[O-])cc1
- T/C (dose: 100.0 mg/kg/injection, schedule: Q01DX001 (ip), vehicle: saline with Tween-80): 88 % of control
- T/C (dose: 200.0 mg/kg/injection, schedule: Q01DX001 (ip), vehicle: saline with Tween-80): 89 % of control
- T/C (dose: 400.0 mg/kg/injection, schedule: Q01DX001 (ip), vehicle: saline with Tween-80): 88 % of control

Compound: Cc1cc2ncn(CO)c2cc1C
- T/C [8]: 100 % of control
- T/C (dose: 200.0 mg/kg/injection, schedule: Q04DX003 (ip), vehicle: saline with Tween-80): 94 % of control
- T/C (dose: 400.0 mg/kg/injection, schedule: Q04DX003 (ip), vehicle: saline with Tween-80): 100 % of control

Compound: COc1ccc(CO)cc1
- T/C (dose: 75.0 mg/kg/injection, schedule: Q04DX003 (ip), vehicle: Klucel (hydroxypropylcellulose) (HPC)): 95 % of control
- T/C (dose: 150.0 mg/kg/injection, schedule: Q04DX003 (ip), vehicle: Klucel (hydroxypropylcellulose) (HPC)): 101 % of control
- T/C (dose: 300.0 mg/kg/injection, schedule: Q04DX003 (ip), vehicle: Klucel (hydroxypropylcellulose) (HPC)): 91 % of control

Compound: CC(=O)[C@@]1(O)CC[C@H]2[C@@H]3C[C@H](C)C4=CC(=O)CC[C@]4(C)[C@H]3[C@@H](O)C[C@@]21C
- T/C (dose: 12.5 mg/kg/injection, schedule: Q04DX002 (ip), vehicle: Klucel (hydroxypropylcellulose) (HPC)): 102 % of control
- T/C (dose: 25.0 mg/kg/injection, schedule: Q04DX002 (ip), vehicle: Klucel (hydroxypropylcellulose) (HPC)): 105 % of control
- T/C [9]: 112 % of control
- T/C (dose: 100.0 mg/kg/injection, schedule: Q01DX001 (ip), vehicle: saline): 104 % of control
- T/C (dose: 100.0 mg/kg/injection, schedule: Q01DX009 (ip), vehicle: acetone): 97 % of control
- T/C (dose: 100.0 mg/kg/injection, schedule: Q04DX003 (ip), vehicle: saline): 104 % of control
- T/C (dose: 200.0 mg/kg/injection, schedule: Q01DX001 (ip), vehicle: saline): 100 % of control
- T/C (dose: 200.0 mg/kg/injection, schedule: Q01DX009 (ip), vehicle: acetone): 92 % of control
- T/C (dose: 200.0 mg/kg/injection, schedule: Q04DX003 (ip), vehicle: saline): 102 % of control
- T/C (dose: 400.0 mg/kg/injection, schedule: Q01DX001 (ip), vehicle: saline): 91 % of control
- T/C (dose: 400.0 mg/kg/injection, schedule: Q01DX009 (ip), vehicle: acetone): 97 % of control
- T/C (dose: 400.0 mg/kg/injection, schedule: Q04DX003 (ip), vehicle: saline): 95 % of control

Compound: Cc1ccc(Nc2cccc3c2C(=O)c2c(Nc4ccc(C)cc4C)cccc2C3=O)c(C)c1
- T/C [1]: 97 % of control
- T/C [2]: 117 % of control
- T/C [3]: 100 % of control
